{
  "source": "ChEMBL document CHEMBL1139451",
  "about": "“The discovery of ezetimibe: a view from outside the receptor” (2004)",
  "key": {"Cricetinae gen. sp. [1]": {"tested_on": "Cricetinae gen. sp.", "assay": "Compound was tested for the change in liver cholesterol (CE) levels in hamster", "type": "functional, Cricetulus griseus"}, "Cricetinae gen. sp. [2]": {"tested_on": "Cricetinae gen. sp.", "assay": "Compound was tested for the change in liver cholesterol (CE) levels in hamsters", "type": "functional, Cricetulus griseus"}, "[3]": {"biological_target": "T1, Sterol O-acyltransferase 1 (Cricetulus griseus) (UniProt Q60457)", "T1 sequence (whole entry)": "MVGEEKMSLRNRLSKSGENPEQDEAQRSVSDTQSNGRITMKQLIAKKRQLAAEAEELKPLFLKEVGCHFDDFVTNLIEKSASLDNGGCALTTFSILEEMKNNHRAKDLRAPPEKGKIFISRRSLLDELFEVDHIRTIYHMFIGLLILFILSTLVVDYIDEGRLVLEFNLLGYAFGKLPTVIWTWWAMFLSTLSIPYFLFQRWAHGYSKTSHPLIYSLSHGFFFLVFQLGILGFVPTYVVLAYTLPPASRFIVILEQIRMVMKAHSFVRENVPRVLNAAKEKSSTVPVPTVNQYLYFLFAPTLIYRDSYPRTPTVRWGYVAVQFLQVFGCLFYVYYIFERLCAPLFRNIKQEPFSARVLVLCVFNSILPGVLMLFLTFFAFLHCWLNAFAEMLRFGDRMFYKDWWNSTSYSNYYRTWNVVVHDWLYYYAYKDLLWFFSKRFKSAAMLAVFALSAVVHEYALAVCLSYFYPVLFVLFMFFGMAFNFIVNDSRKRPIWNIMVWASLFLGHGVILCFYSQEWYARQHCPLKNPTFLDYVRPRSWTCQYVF", "assay": "Compound was tested for the change in serum cholesterol (SC) levels by the inhibition of ACAT in hamster at 50 mg/kg p.o.; NE=No effect", "type": "functional, organism-based", "parameters": "dose 50 mg/kg"}, "[4]": {"biological_target": "T1, Sterol O-acyltransferase 1 (Cricetulus griseus)", "assay": "Compound was tested for the change in liver cholesteryl ester (CE) levels by the inhibition of ACAT in hamster at 50 mg/kg p.o.; NE=No effect", "type": "functional, organism-based", "parameters": "dose 50 mg/kg"}, "[5]": {"biological_target": "T1, Sterol O-acyltransferase 1 (Cricetulus griseus)", "assay": "Compound was tested for the change in serum cholesterol (SC) levels by the inhibition of ACAT in hamster at 50 mg/kg p.o.", "type": "functional, organism-based", "parameters": "dose 50 mg/kg"}, "[6]": {"biological_target": "T1, Sterol O-acyltransferase 1 (Cricetulus griseus)", "assay": "Compound was tested for the change in liver cholesteryl ester (CE) levels by the inhibition of ACAT in hamster at 50 mg/kg p.o.", "type": "functional, organism-based", "parameters": "dose 50 mg/kg"}, "Canis familiaris": {"organism": "Canis familiaris", "assay": "Compound was tested for the change in serum cholesterol (SC) levels in cholesterol fed dog", "type": "functional", "conditions": "Canis lupus familiaris"}, "Homo sapiens [7]": {"organism": "Homo sapiens", "assay": "Compound was tested for the reduction in low density lipoprotein cholesterol", "type": "functional"}, "Homo sapiens [8]": {"organism": "Homo sapiens", "assay": "Compound was tested for the reduction in total cholesterol", "type": "functional"}, "Homo sapiens [9]": {"organism": "Homo sapiens", "assay": "Compound was tested for the reduction in high density lipoprotein cholesterol", "type": "functional"}, "Homo sapiens [10]": {"organism": "Homo sapiens", "assay": "Compound was tested for the reduction in triglycerides", "type": "functional"}, "Rattus norvegicus": {"organism": "Rattus norvegicus", "assay": "Compound was tested for the change in serum cholesterol (SC) level in cholesterol fed rat", "type": "functional"}, "Monkey": {"tested_on": "Monkey", "assay": "Compound was tested for the change in serum cholesterol (SC) levels in cholesterol fed monkey", "type": "functional", "conditions": "Cercopithecidae, in Primates"}},
  "note": "The source made the active and inactive calls. No cut-off for these calls is given here.",
  "data": [
    {"smiles": "CC(=O)c1ccc([C@@H]2[C@@H](CCC(=O)c3ccccc3)C(=O)N2c2ccc(C(C)=O)cc2)cc1", "values": [
      {"measurement": "ED50", "setting": "Cricetinae gen. sp. [1]", "value": 1.9, "unit": "mg/kg"}
    ]},
    {"smiles": "O=Cc1ccc([C@@H]2[C@@H](CC[C@@H](O)c3ccccc3)C(=O)N2c2ccc(C=O)cc2)cc1", "values": [
      {"measurement": "ED50", "setting": "Cricetinae gen. sp. [1]", "value": 5, "unit": "mg/kg"}
    ]},
    {"smiles": "O=Cc1ccc([C@@H]2[C@@H](CC[C@H](O)c3ccccc3)C(=O)N2c2ccc(C=O)cc2)cc1", "values": [
      {"measurement": "ED50", "setting": "Cricetinae gen. sp. [2]", "value": 0.9, "unit": "mg/kg"}
    ]},
    {"smiles": "COc1ccc([C@@H]2[C@@H](/C=C/Cc3ccccc3)C(=O)N2c2ccc(OC)cc2)cc1", "values": [
      {"measurement": "Change in cholesterol", "setting": "[3]", "value": "inactive"},
      {"measurement": "Change in cholesterol", "setting": "[4]", "value": "inactive"}
    ]},
    {"smiles": "COc1ccc([C@@H]2[C@@H](/C=C\\Cc3ccccc3)C(=O)N2c2ccc(OC)cc2)cc1", "values": [
      {"measurement": "Change in cholesterol", "setting": "[5]", "value": -20, "unit": "%"},
      {"measurement": "Change in cholesterol", "setting": "[6]", "value": -73, "unit": "%"}
    ]},
    {"smiles": "O=C1[C@H](CCCc2ccccc2)[C@@H](c2ccc(O)cc2)N1c1ccc(O)cc1", "values": [
      {"measurement": "Change in cholesterol", "setting": "[6]", "value": -78, "unit": "%"}
    ]},
    {"smiles": "O=Cc1ccc([C@@H]2[C@@H](CCCc3ccc(O)cc3)C(=O)N2c2ccc(C=O)cc2)cc1", "values": [
      {"measurement": "Change in cholesterol", "setting": "[6]", "value": -78, "unit": "%"}
    ]},
    {"smiles": "O=Cc1ccc([C@@H]2[C@@H](CCCc3ccccc3)C(=O)N2c2ccc(O)cc2)cc1", "values": [
      {"measurement": "Change in cholesterol", "setting": "[6]", "value": -68, "unit": "%"}
    ]},
    {"smiles": "COc1ccc([C@@H]2N(c3ccccc3)C(=O)C23CCC(c2ccc(Cl)cc2)CC3)cc1", "note": "(stereo in doubt; 17) [listing 1 of 2 here]", "values": [
      {"measurement": "ED50", "setting": "Cricetinae gen. sp. [2]", "value": 0.66, "unit": "mg/kg"}
    ]},
    {"smiles": "COc1ccc([C@@H]2N(c3ccccc3)C(=O)C23CCC(c2ccc(Cl)cc2)CC3)cc1", "note": "(stereo in doubt; 17) [listing 2 of 2 here]", "values": [
      {"measurement": "Change in cholesterol", "setting": "[5]", "value": -46, "unit": "%"},
      {"measurement": "Change in cholesterol", "setting": "[6]", "value": -97, "unit": "%"}
    ]},
    {"smiles": "COc1ccc([C@@H]2N(c3ccccc3)C(=O)C23CCC(c2ccc(Cl)cc2)CC3)cc1", "note": "(stereo in doubt; 18)", "values": [
      {"measurement": "Change in cholesterol", "setting": "[5]", "value": "No effect"},
      {"measurement": "Change in cholesterol", "setting": "[6]", "value": "No effect"}
    ]},
    {"smiles": "O=C1[C@H](CC[C@H](O)c2ccc(F)cc2)[C@@H](c2ccc(O)cc2)N1c1ccc(F)cc1", "note": "[EZETIMIBE]", "values": [
      {"measurement": "ED50", "setting": "Canis familiaris", "value": 0.007, "unit": "mg/kg"},
      {"measurement": "ED50", "setting": "Cricetinae gen. sp. [1]", "value": 0.04, "unit": "mg/kg"},
      {"measurement": "Mean", "setting": "Homo sapiens [7]", "value": -16.9, "unit": "%"},
      {"measurement": "Mean", "setting": "Homo sapiens [8]", "value": -12.5, "unit": "%"},
      {"measurement": "Mean", "setting": "Homo sapiens [9]", "value": 1.3, "unit": "%"},
      {"measurement": "Mean", "setting": "Homo sapiens [10]", "value": -5.7, "unit": "%"},
      {"measurement": "ED50", "setting": "Rattus norvegicus", "value": 0.03, "unit": "mg/kg"},
      {"measurement": "ED50", "setting": "Monkey", "value": 0.0005, "unit": "mg/kg"}
    ]}
  ]
}
